The values below come from patent publication US20220056037A1 (SPV THERAPEUTICS INC., priority 2018, published 2022).

Common to all, as to experiment: 2D cell proliferation assay (CellTiter-Blue)
Holding throughout (assay type): cell-based
A general note: Alamar Blue is a resazurin reagent that responds to reducing activity.

For one assay, the system named is MEXF A-375. The conditions noted are these: Homo sapiens, 72 h; cell line MEXF A-375; three days of treatment; read-out: IC (abs. IC50). As for the experimental part:
(§1) Viability of the cells was analyzed by using the CellTiter-Blue® Cell Viability Assay (Promega), and was performed according to manufacturer's instructions. Briefly, cells were harvested from exponential phase cultures (Chapter 6.6), counted and plated in 96-well flat-bottom microtiter plates at a cell density of 4,000-60,000 cells/well in a volume of 140 μl per well. After a 24 hours recovery period, 10 μL cell culture medium (six control wells/plate) or culture medium with test compound were added (Chapter 6.2). The compounds were applied at five concentrations in full-log increments up to 100 μM in duplicate. Cultures were incubated at 37° C. and 5% CO2 in a humidified atmosphere for another three days. After three days of treatment, 20 μl/well CellTiter-Blue® reagent was added. Following incubation with CellTiter-Blue® reagent for up to four hours, fluorescence (FU) was measured by using the Enspire Multimode Plate Reader (excitation λ=570 nm, emission λ=600 nm). For calculations, the mean values of duplicate/sextuplicate (untreated control) data were used.
(§2) Drug effects were expressed in terms of the percentage of the fluorescence signal, obtained by comparison of the mean signal in the treated wells with the mean signal of the untreated controls (expressed by the test-versus-control value, T/C-value [%]):
(§3) IC values are reported as relative IC50 values and absolute IC50 and IC70 values. […] The absolute IC70 value gives the concentration of the test compound that achieves T/C=30%. The relative IC50 value is the concentration of test compound that gives a response half way between the top and bottom plateau of the sigmoidal concentration-response curve (inflection point of the curve). Calculation was done by 4parameter non-linear curve fit (Oncotest Data Warehouse Software).
(§4) If an IC50 or IC70 value could not be determined within the examined dose range (because a compound was either too active or lacked activity), the lowest or highest concentration studied was used for calculation of the geometric mean value.
(§5) The overall potency of a compound was determined by the geometric mean IC50/IC70 values of all individual IC50/IC70 values. In the heatmap representation of IC50 and IC70 values, the distribution of the IC50 or IC70 values obtained for a test compound in the individual cell lines is given in relation to the geometric mean […] or IC70 value, obtained over all PDX models tested. The individual IC values range from 1/32-fold geometric mean IC (corresponding to very potent compound activity or high tumor sensitivity) to 32-fold geometric mean IC (corresponding to lack of compound activity or tumor resistance). The heatmap presentation, therefore, represents an antiproliferative “fingerprint” profile of a test compound.

A further assay concerns UXF EFE-184. The conditions noted are these: Homo sapiens, 72 h; cell line UXF EFE-184; three days of treatment; read-out: IC (abs. IC50). As for the experimental part: as §1, §2, §3, §4, §5
The next assay has as its system MAXFLB 147D (ER +). The conditions noted are these: 72 h; cell line MAXFLB 147D (ER +); three days of treatment; read-out: IC (abs. IC50). The protocol: as §1, §2, §3, §4, §5
Another assay deals with UXF MFE-319. The following applies: 72 h; cell line UXF MFE-319; three days of treatment; read-out: IC (abs. IC50). As for the experimental part: as §1, §2, §3, §4, §5
For a further assay, the system named is CXF HCT-15. The following applies: Homo sapiens, 72 h; cell line CXF HCT-15; three days of treatment; read-out: IC (abs. IC50). As for the experimental part:
as §1, §2, §3, §4, §5

In another assay the test system is MAXFTN ZR-75-1 (ER +). The following applies: Homo sapiens, 72 h; cell line MAXFTN ZR-75-1 (ER +); three days of treatment; read-out: IC (abs. IC50). As for the experimental part:
as §1, §2, §3, §4, §5

The next assay relates to PAXF BxPC-3. The conditions noted are these: Homo sapiens, 72 h; cell line PAXF BxPC-3; three days of treatment; read-out: IC (abs. IC50). As for the experimental part: as §1, §2, §3, §4, §5
The next assay concerns PRXF LNCaP. The following applies: Homo sapiens, 72 h; cell line PRXF LNCaP; three days of treatment; read-out: IC (abs. IC50). As for the experimental part:
as §1, §2, §3, §4, §5

A further assay concerns LYXFNH U-937. The following applies: Homo sapiens, 72 h; cell line LYXFNH U-937; three days of treatment; read-out: IC (abs. IC50). The protocol: as §1, §2, §3, §4, §5
In a further assay the test system is MAXFTN MDA-MB-468 (ER −). The conditions noted are these: Homo sapiens, 72 h; cell line MAXFTN MDA-MB-468 (ER −); three days of treatment; read-out: IC (abs. IC50). The protocol:
as §1, §2, §3, §4, §5

In the next assay the test system is CNXF U-87 MG. The conditions noted are these: Homo sapiens, 72 h; cell line CNXF U-87 MG; three days of treatment; read-out: IC (abs. IC50). As for the experimental part:
as §1, §2, §3, §4, §5

Another assay concerns LIXAH SNU-398. The conditions noted are these: Homo sapiens, 72 h; cell line LIXAH SNU-398; three days of treatment; read-out: IC (abs. IC50). The protocol:
as §1, §2, §3, §4, §5

The next assay deals with LXFA A549. The conditions noted are these: Homo sapiens, 72 h; cell line LXFA A549; three days of treatment; read-out: IC (abs. IC50). The protocol: as §1, §2, §3, §4, §5
The next assay concerns MMXF U-266. The following applies: Homo sapiens, 72 h; cell line MMXF U-266; three days of treatment; read-out: IC (abs. IC50). The protocol:
as §1, §2, §3, §4, §5

In the next assay the test system is MAXFLB MCF7 (ER +). The following applies: Homo sapiens, 72 h; cell line MAXFLB MCF7 (ER +); three days of treatment; read-out: IC (abs. IC50). As for the experimental part: as §1, §2, §3, §4, §5
In a further assay the test system is MAXFTN MDA-MB-453. The following applies: Homo sapiens, 72 h; cell line MAXFTN MDA-MB-453; three days of treatment; read-out: IC (abs. IC50). The protocol:
as §1, §2, §3, §4, §5

The test system of a further assay is CEXF HeLa. The following applies: Homo sapiens, 72 h; cell line CEXF HeLa; three days of treatment; read-out: IC (abs. IC50). As for the experimental part:
as §1, §2, §3, §4, §5

The subject of another assay is MEXF A2058. The conditions noted are these: Homo sapiens, 72 h; cell line MEXF A2058; three days of treatment; read-out: IC (abs. IC50). As for the experimental part: as §1, §2, §3, §4, §5

For the compound `CN1CCN(c2ccc(Nc3ncc4cc(C(=O)N(C)C)n(C56CC(C5)C6)c4n3)cc2)CC1` [SPV113], the IC50 in the assay on MEXF A-375 was 101 nM; with UXF EFE-184, 906 nM; with MAXFLB 147D (ER +), 3.47 µM; with UXF MFE-319, 667 nM; with CXF HCT-15, 202 nM; in the assay with MAXFTN ZR-75-1 (ER +), 12.6 µM. In addition, the IC50 is 193 nM in the assay with PAXF BxPC-3; 116 nM with PRXF LNCaP; no more than 10 nM in the assay with LYXFNH U-937; 290 nM with MAXFTN MDA-MB-468 (ER −); 100 µM with CNXF U-87 MG; 148 nM in the assay with LIXAH SNU-398. The half-inhibitory concentration (IC50) with LXFA A549 was 1230 nM; with MMXF U-266, 655 nM; with MAXFLB MCF7 (ER +), 173 nM; with MAXFTN MDA-MB-453, 177 nM; in the assay on CEXF HeLa, 329 nM; in the assay on MEXF A2058, 1510 nM.

The IC50 is the concentration that gives 50% inhibition.
